# Data from patent publication US10253039B2, “Inhibitors of bacterial DNA gyrase with efficacy against gram-negative bacteria” (priority 2014, dated 2019).
# Where two headings read alike, the source gives them in different places.
# Key:
# Assay type in all cases: cell-based
# [1] = test system: E. coli JW5503 (deltolC); assay: MIC, 20-strain panel; settings: Escherichia coli, C: E. coli JW5503 (deltolC)
# Description: (§1) A microdilution method in 96-well plates was used and the MIC protocol established by the Clinical Laboratory Standards Institute was followed. From a growing subculture, a 1:10000 inoculum of each strain in Luria-Bertani media was prepared and aliquoted 100 μL in 4 columns of wells, except for the top row wells, which contained 200 μL of inoculum. A solution of gyramide C2 was aliquoted into 3 of the wells containing 200 μL and DMSO was added to the 4th well. The liquid in each of wells was mixed with a multi-channel pipet and 100 μL was transferred to the next well and mixed. The 2-fold dilution was continued down the 96-well plate until 100 μL was left, which was discarded. The plates were incubated at 37° C. with shaking for 16-18 hours. The MIC was determined as the lowest concentration that inhibited growth and had no turbidity by visual inspection.
# (§2) Minimum inhibitory concentrations of various gyramide compounds against 20 strains of bacteria were determined using the procedure described above.
# [2] = test system: E. coli MG1655; assay: MIC, 20-strain panel; settings: Escherichia coli, MG1655, A: E. coli MG1655
# Description: as §1, §2
# [3] = test system: Salmonella enterica subsp. enterica typhimurium; assay: MIC, 20-strain panel; settings: F: Salmonella enterica subsp. enterica Typhimurium
# Description: as §1, §2
# [4] = test system: Staphylococcus epidermidis; assay: MIC, 20-strain panel
# Description: as §1, §2
# [5] = test system: Shigella flexneri; assay: MIC, 20-strain panel; settings: G: Shigella flexneri
# Description: as §1, §2
# [6] = test system: Staphylococcus saprophyticus subsp. saprophyticus; assay: MIC, 20-strain panel
# Description: as §1, §2
# [7] = test system: Streptococcus agalactiae; assay: MIC, 20-strain panel
# Description: as §1, §2
# [8] = test system: Streptococcus pyogenes; assay: MIC, 20-strain panel
# Description: as §1, §2
# [9] = test system: Staphylococcus aureus subsp. aureus; assay: MIC, 20-strain panel; settings: H: Staphylococcus aureus subsp. aureus
# Description: as §1, §2
# [10] = test system: Klebsiella pneumoniae subsp. pneumoniae; assay: MIC, 20-strain panel; settings: E: Klebsiella pneumoniae subsp. pneumoniae
# Description: as §1, §2
# [11] = test system: Edwardsiella tarda; assay: MIC, microdilution in 96-well plates; settings: D: Edwardsiella tarda
# Description: as §1, §2
# [12] = test system: E. coli BW25113; assay: MIC, microdilution in 96-well plates; settings: Escherichia coli, BW25113, B: E. coli BW25113
# Description: as §1, §2
Structure (SMILES),MIC [1] [mg/L],MIC ([2]; read-out: MIC) [mg/L],MIC [3] [mg/L],MIC [4] [mg/L],MIC [5] [mg/L],MIC [6] [mg/L],MIC [7] [mg/L],MIC [8] [mg/L],MIC ([9]; read-out: MIC) [mg/L],MIC [10] [mg/L],MIC [11] [mg/L],MIC ([12]; read-out: MIC) [mg/L],MIC [2] [mg/L],MIC [9] [mg/L],MIC [12] [mg/L]
CC(=O)c1cc(S(=O)(=O)N[C@@H]2CCN(Cc3ccc(OC(C)C)cc3)C2)ccc1C [Compound 1],> 8,> 8,> 8,> 8,> 8,> 8,> 8,> 8,> 8,> 8,> 8,> 8,–,–,–
N#Cc1cccc(S(=O)(=O)N[C@@H]2CCN(Cc3ccc(OC(F)F)cc3)C2)c1 [Compound 2],8,> 8,> 8,> 8,> 8,> 8,> 8,> 8,> 8,> 8,> 8,> 8,–,–,–
O=S(=O)(N[C@@H]1CCN(Cc2ccc(-n3ccnn3)cc2)C1)c1cccc(C(F)(F)F)c1 [Compound 3],4,> 8,> 8,> 8,> 8,> 8,> 8,> 8,> 8,> 8,> 8,> 8,–,–,–
CC(C)Oc1ccc(CN2CC[C@@H](NS(=O)(=O)c3cc(C(F)(F)F)ccc3F)C2)cc1 [Compound 4],0.5,> 8,> 8,> 8,> 8,> 8,> 8,> 8,> 8,> 8,> 8,> 8,–,–,–
O=S(=O)(N[C@@H]1CCN(Cc2ccc(OC3CCC3)cc2)C1)c1cccc(C(F)(F)F)c1 [Compound 5],0.125,> 8,8,> 8,> 8,> 8,> 8,> 8,> 8,> 8,> 8,~8,–,–,–
O=S(=O)(N[C@@H]1CCN(Cc2ccc(OC(F)(F)F)cc2)C1)c1cccc(C(F)(F)F)c1 [Compound 6],4,> 8,> 8,> 8,> 8,> 8,> 8,> 8,> 8,> 8,> 8,> 8,–,–,–
N#Cc1cccc(S(=O)(=O)N[C@@H]2CCN(Cc3ccc(-n4ccnn4)cc3)C2)c1 [Compound 7],8,> 8,> 8,> 8,> 8,> 8,> 8,> 8,> 8,> 8,> 8,> 8,–,–,–
N#Cc1cccc(S(=O)(=O)N[C@@H]2CCN(Cc3ccc(OCC(F)F)cc3)C2)c1 [Compound 8],2,> 8,8,> 8,> 8,> 8,> 8,> 8,> 8,> 8,> 8,> 8,–,–,–
N#Cc1cccc(S(=O)(=O)N[C@@H]2CCN(Cc3ccc4c(c3)OCCO4)C2)c1 [Compound 9],> 8,> 8,> 8,> 8,> 8,> 8,> 8,> 8,> 8,> 8,> 8,> 8,–,–,–
CC(C)Oc1ccc(CN2CC[C@@H](NS(=O)(=O)c3cc(C#N)ccc3Cl)C2)cc1 [Compound 10],0.25,> 8,8,> 8,> 8,> 8,> 8,> 8,> 8,> 8,> 8,> 8,–,–,–
N#Cc1ccc(Cl)c(S(=O)(=O)N[C@@H]2CCN(Cc3ccc(-c4ccccc4)cc3)C2)c1 [Compound 11],< 0.062,–,4,> 8,> 8,> 8,> 8,> 8,–,> 8,> 8,–,> 8,> 8,~8
N#Cc1cccc(S(=O)(=O)N[C@@H]2CCN(Cc3ccc(-c4nccs4)cc3)C2)c1 [Compound 12],2,> 8,> 8,> 8,> 8,> 8,> 8,> 8,> 8,> 8,> 8,> 8,–,–,–
CC(C)(C)Oc1ccc(CN2CC[C@@H](NS(=O)(=O)c3cccc(C#N)c3)C2)cc1 [Compound 13],8,> 8,> 8,> 8,> 8,> 8,> 8,> 8,> 8,> 8,> 8,> 8,–,–,–
O=S(=O)(N[C@@H]1CCN(Cc2ccc(-c3ccncc3)cc2)C1)c1cccc(C(F)(F)F)c1 [Compound 14],2,> 8,> 8,> 8,> 8,> 8,> 8,> 8,> 8,> 8,> 8,> 8,–,–,–
O=S(=O)(N[C@@H]1CCN(Cc2ccc(-c3ccncc3)cc2)C1)c1cccc(OC(F)(F)F)c1 [Compound 15],4,> 8,> 8,> 8,> 8,> 8,> 8,> 8,> 8,> 8,> 8,> 8,–,–,–
O=S(=O)(N[C@@H]1CCN(Cc2ccc(-c3ccccc3)cc2)C1)c1ncc[nH]1 [Compound 16],2,> 8,8,> 8,> 8,> 8,> 8,> 8,> 8,> 8,> 8,> 8,–,–,–
N#Cc1cccc(S(=O)(=O)N[C@@H]2CCN(Cc3ccc(OC(F)(F)F)cc3)C2)c1 [Compound 17],8,> 8,> 8,> 8,> 8,> 8,> 8,> 8,> 8,> 8,> 8,> 8,–,–,–
CC(C)Oc1ccc(CN2CC[C@@H](NS(=O)(=O)c3cccc(C(F)(F)F)c3)C2)cc1 [Compound 18],0.5,> 8,8,> 8,> 8,> 8,> 8,> 8,> 8,> 8,> 8,> 8,–,–,–
N#Cc1cc(S(=O)(=O)N[C@@H]2CCN(Cc3ccc(-c4ccccc4)cc3)C2)ccc1F [Compound 19],0.25,> 8,4,> 8,> 8,> 8,> 8,> 8,> 8,> 8,> 8,> 8,–,–,–
N#Cc1cccc(S(=O)(=O)N[C@@H]2CCN(Cc3ccc(SC(F)(F)F)cc3)C2)c1 [Compound 20],8,> 8,> 8,> 8,> 8,> 8,> 8,> 8,> 8,> 8,> 8,> 8,–,–,–
O=S(=O)(N[C@@H]1CCN(Cc2ccc(-n3cccn3)cc2)C1)c1cccc(OC(F)(F)F)c1 [Compound 21],2,> 8,> 8,2,> 8,> 8,> 8,> 8,8,> 8,> 8,> 8,–,–,–
